In patent US20160368953A1, “BACTERIOCIN WITH NOVEL ACTIVITY” (The United States of America, as represented by the …, priority 2015, published 2016):

What was measured:
[1] = test system: Pediococcus acidilactici; assay: agar diffusion method, zones of inhibition; type: cell-based; set-up: key: +++ represents very strong growth inhibition; ++ represents strong growth inhibition; + represents mild growth inhibition; − represents no growth inhibition; settings: 50 μl CFS of S. thermophilus strain 110 grown in TYL, 7 h and 24 h samples identical; target in MRS
Experimental: (§1) Bacteriocin activity is measured using an agar diffusion method (see, Gilbreth & Somkuti (2005)). Cultures of S. thermophilus strain 110 (NRRL B59671) and S. thermophilus strain LMD-9 are grown at 37° C. to an OD660 between 0.8 and 1.0 in 10 ml tryptone-yeast extract medium (Somkuti & Steinberg 1986) formulated with lactose (TYL) or glucose (TYG), or M17 medium (Becton Dickinson Co., Sparks, Md.) formulated with glucose (M17G) or lactose (M17L). Cells are pelleted by high-speed centrifugation for collection of cell-free supernatants (CFS). CFS (˜50 μl) are loaded into precast wells in an agar medium seeded with the target bacteria (0.5% v/v). Bacterial targets included: S. thermophilus strain ST113 in TYL, P. acidilactici in MRS (Becton Dickinson Co., Sparks, Md.), and L. innocua in BHI (Beckton Dickinson Co., Sparks, Md.). Plates are allowed to equilibrate overnight at 4° C., and then are incubated at 37° C. for 8 hours and are examined for the appearance of zones of inhibition.
(§2) S. thermophilus strain 110 (NRRL B59671) are grown overnight in tryptone-yeast extract-lactose (TYL) medium. The overnight culture is diluted in fresh TYL medium and grown for 7 or 24 hours. At each time point, a 1 ml sample is collected. […] The agar plates are monitored for growth of the target bacterium (agar medium becomes turbid), and the presence of clear zones around wells. […]

[2] = test system: Listeria innocua; assay: agar diffusion method, zones of inhibition; type: cell-based; set-up: key: +++ represents very strong growth inhibition; ++ represents strong growth inhibition; + represents mild growth inhibition; − represents no growth inhibition; settings: 50 μl CFS of S. thermophilus strain 110 grown in TYL, 7 h and 24 h samples identical; target in BHI
Experimental: as §1, §2

[3] = test system: Propionibacterium acnes; assay: agar diffusion method, zones of inhibition; type: cell-based; set-up: key to Growth Inhibitory Activity: +++ represents very strong growth inhibition; ++ represents strong growth inhibition; + represents mild growth inhibition; − represents no growth inhibition
Experimental: S. thermophilus strain 110 (NRRL B59671) are grown overnight in tryptone-yeast extract-lactose (TYL) medium. The overnight culture is diluted in fresh TYL medium and grown for 7 or 24 hours. At each time point, a 1 ml sample is collected. Bacterial cells are removed from the 1 ml samples by centrifugation; and the cell free supernatants (CFS) are tested for antimicrobial activity using an agar diffusion method (see Gilbreth and Somkuti (2005) and Example 2 supra). Target agar plates are prepared by inoculating molten microbiological medium with the overnight growth of susceptible bacteria (0.5% v/v; 250 μl of culture into 50 ml of medium). The inoculated molten agar is poured into square dishes and left to harden at room temperature (approximately 10 minutes). Wells are made in the solidified agar plates using a sterile glass Pasteur pipette, and each well is filled with 50 μl of CFS samples. The agar plates are stored overnight at 4° C. to allow for diffusion of the CFS into the agar medium. The agar plates with loaded wells are then incubated at 37° C. to allow for growth of the target bacterium. The agar plates are monitored for growth of the target bacterium (agar medium becomes turbid), and the presence of clear zones around wells. […]

[4] = test system: Pediococcus acidilactici; assay: antimicrobial activity of recombinant BlpU, SDS-PAGE gel overlay method; type: cell-based; settings: expressed in E. coli BL21 pGEX-6P-1/blpU; before or after Factor Xa cleavage of the GST tag; FIG. 6
Source text: The nucleic acid sequence (162 base pairs; SEQ ID NO: 37) corresponding to the mature BlpU peptide (not including the 23 amino acid leader peptide) is amplified from the S. thermophilus strain 110 (NRRL-B59671) chromosome by PCR with the primers: forward: […] (BamHI—recognition site underlined; nucleotides encoding the Factor Xa recognition sequence (isoleucine-glutamic acid-glycine-arginine) are italicized) (SEQ ID NO: 34) and reverse: […] (XhoI—recognition site underlined) (SEQ ID NO: 35). […] The DNA fragment is subsequently cloned into the pGEX 6P-1 plasmid (GE Healthcare Life Sciences, Piscataway, N.J.) at the BamHI and XhoI sites. The resulting plasmid (pGEX 6P-1/blpU) encodes for a fusion protein with the glutathione S transferase (GST) tag on the N-terminus of BlpU, and expression is under control of an isopropyl β-D-1-thiogalactopyranoside (IPTG) inducible promoter. The plasmid is transformed into E. coli strain BL21 for recombinant expression of the fusion protein. […] The eluent from the dialysis bag is recovered and analyzed by SDS-PAGE for the presence of a ˜31 kDa fusion protein. […] The cleaved product is analyzed by SDS-PAGE for the presence of BlpU (silver nitrate staining) and antimicrobial activity against Pediococcus acidilactici (gel overlay method; Gilbreth and Somkuti, 2005).

[5] = test system: Streptococcus pyogenes; assay: agar diffusion method, zones of inhibition; type: cell-based; set-up: key to Growth Inhibitory Activity: +++ represents very strong growth inhibition; ++ represents strong growth inhibition; + represents mild growth inhibition; − represents no growth inhibition
Experimental: as §1
(§3) S. thermophilus strain 110 (NRRL B59671) are grown overnight in tryptone-yeast extract-lactose (TYL) medium. The overnight culture is diluted in fresh TYL medium and grown for 7 or 24 hours. At each time point, a 1 ml sample is collected. Bacterial cells are removed from the 1 ml samples by centrifugation; and the cell free supernatants (CFS) are tested for antimicrobial activity using an agar diffusion method (see Gilbreth and Somkuti (2005) and Example 2 supra). Target agar plates are prepared by inoculating molten microbiological medium with the overnight growth of susceptible bacteria (0.5% v/v; 250 μl of culture into 50 ml of medium). The inoculated molten agar is poured into square dishes and left to harden at room temperature (approximately 10 minutes). Wells are made in the solidified agar plates using a sterile glass Pasteur pipette, and each well is filled with 50 μl of CFS samples. The agar plates are stored overnight at 4° C. to allow for diffusion of the CFS into the agar medium. The agar plates with loaded wells are then incubated at 37° C. to allow for growth of the target bacterium. The agar plates are monitored for growth of the target bacterium (agar medium becomes turbid), and the presence of clear zones around wells. […] Furthermore, antimicrobial activity is shown to be associated with a low-molecular weight peptide based on gel electrophoretic analysis (Gilbreth & Somkuti 2005). Agar diffusion assays are repeated a minimum of three times.

[6] = test system: Streptococcus mutans; assay: agar diffusion method, zones of inhibition; type: cell-based; set-up: key to Growth Inhibitory Activity: +++ represents very strong growth inhibition; ++ represents strong growth inhibition; + represents mild growth inhibition; − represents no growth inhibition
Experimental: as §1, §3

[7] = test system: Pediococcus acidilactici; settings: Gilbreth and Somkuti (2005); positive control; cited from earlier work
[8] = test system: Lactobacillus acidophilus; assay: agar diffusion method, zones of inhibition; type: cell-based; set-up: key: +++ represents very strong growth inhibition; ++ represents strong growth inhibition; + represents mild growth inhibition; − represents no growth inhibition; settings: 50 μl CFS of S. thermophilus strain 110 grown in TYL, 7 h and 24 h samples identical; target in MRS
Experimental: as §3

[9] = test system: Streptococcus uberus; assay: agar diffusion method, zones of inhibition; type: cell-based; set-up: key: +++ represents very strong growth inhibition; ++ represents strong growth inhibition; + represents mild growth inhibition; − represents no growth inhibition; settings: 50 μl CFS of S. thermophilus strain 110 grown in TYL, 7 h and 24 h samples identical; target in TYL
Experimental: as §3

[10] = test system: Streptococcus agalactiae; assay: agar diffusion method, zones of inhibition; type: cell-based; set-up: key: +++ represents very strong growth inhibition; ++ represents strong growth inhibition; + represents mild growth inhibition; − represents no growth inhibition; settings: 50 μl CFS of S. thermophilus strain 110 grown in TYL, 7 h and 24 h samples identical; target in TYL
Experimental: as §3

[11] = test system: Streptococcus dysgalactiae; assay: agar diffusion method, zones of inhibition; type: cell-based; set-up: key: +++ represents very strong growth inhibition; ++ represents strong growth inhibition; + represents mild growth inhibition; − represents no growth inhibition; settings: 50 μl CFS of S. thermophilus strain 110 grown in TYL, 7 h and 24 h samples identical; target in TYL
Experimental: as §3

[12] = 50 μl CFS of S. thermophilus strain 110 grown in TYL, 7 h and 24 h samples identical, target in BHI

thermophilin 110: mature bacteriocin produced by S. thermophilus strain 110, amino acids 24-76 of SEQ ID NO: 1 (SEQ ID NO: 36), about 5 kDa (GCSWGGFAKQGVATGVGNGLRLGIKTRTWQGAVAGAAGGAIVGGVGYGATCWW; listed as Streptococcus thermophilus)
Growth Inhibitory Activity [1]: +++
Growth Inhibitory Activity [2]: +
Growth Inhibitory Activity [3, 12]: ++
growth inhibitory activity against P. acnes (in words) ([3]; text summary of Table 4): strong growth inhibitory activity
antimicrobial activity against P. acidilactici [4]: inhibition zone
Growth Inhibitory Activity [5, 12]: +++
growth inhibitory activity against S. pyogenes (in words) ([5]; text summary of Table 4): very strong growth inhibitory activity
Growth Inhibitory Activity ([6]; 50 μl CFS of S. thermophilus strain 110 grown in TYL, 7 h and 24 h samples identical, target in Todd Hewitt): ++
growth inhibitory activity against S. mutans (in words) ([6]; text summary of Table 4): strong growth inhibitory activity
zones of inhibition against P. acidilactici in prior studies [7]: very strong zones of inhibition
Growth Inhibitory Activity [8]: +++
Growth Inhibitory Activity [9]: +
Growth Inhibitory Activity [10]: −
Growth Inhibitory Activity [11]: −
